Where no end group is shown, it is not given here. [ ]: non-standard residue; d: D form. Oic = O=C(O)[C@@H]1C[C@@H]2CCCC[C@@H]2N1; Phe(4-Cl) = N[C@@H](Cc1ccc(Cl)cc1)C(=O)O; hArg = N=C(N)NCCCC[C@H](N)C(=O)O; Cha = N[C@@H](CC1CCCCC1)C(=O)O; Nle = CCCC[C@H](N)C(=O)O
Key:
[1] = target: T1, human APJ (Homo sapiens, UniProt P35414); experiment: cAMP assay, stable CHO cell line expressing human APJ; type: cell-based; conditions: FIG. 5; cAMP seen with either human or rat APJ stable cell lines
T1 construct: expressed in transfected cells
T1 sequence (P35414 1-380): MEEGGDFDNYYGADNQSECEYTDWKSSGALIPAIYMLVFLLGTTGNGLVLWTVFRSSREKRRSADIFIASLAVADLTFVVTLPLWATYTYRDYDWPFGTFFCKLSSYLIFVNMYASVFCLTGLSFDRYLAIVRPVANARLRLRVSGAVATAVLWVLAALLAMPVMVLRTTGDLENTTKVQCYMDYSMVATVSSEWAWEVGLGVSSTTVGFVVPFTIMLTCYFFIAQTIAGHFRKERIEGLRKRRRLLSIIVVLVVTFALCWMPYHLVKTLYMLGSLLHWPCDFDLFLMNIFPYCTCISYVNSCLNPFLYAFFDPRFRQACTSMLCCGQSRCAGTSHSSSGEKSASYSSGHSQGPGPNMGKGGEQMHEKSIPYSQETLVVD
Protocol: Stable CHO cell lines expressing APJ were used for cAMP assays. The cells were incubated with stimulation buffer containing HANK's buffer, forskolin and 0.5 mM IBMX in the absence or presence of various concentrations' of peptides at 37° C. for 45 min. The cAMP level was determined using a cyclic AMP kit (DiscoverX) according to the manufacturer's instructions.

[2] = target: T2, rat APJ receptor (Rattus norvegicus, UniProt Q9JHG3); experiment: [35S]GTPγS assay, membranes from stable cell lines, rat APJ; type: biochemical; conditions: FIG. 10; effect of PEG size (20 kDa vs 40 kDa)
T2 construct: expressed in transfected cells; CHO is named only for the cAMP assay
T2 sequence (Q9JHG3 1-377): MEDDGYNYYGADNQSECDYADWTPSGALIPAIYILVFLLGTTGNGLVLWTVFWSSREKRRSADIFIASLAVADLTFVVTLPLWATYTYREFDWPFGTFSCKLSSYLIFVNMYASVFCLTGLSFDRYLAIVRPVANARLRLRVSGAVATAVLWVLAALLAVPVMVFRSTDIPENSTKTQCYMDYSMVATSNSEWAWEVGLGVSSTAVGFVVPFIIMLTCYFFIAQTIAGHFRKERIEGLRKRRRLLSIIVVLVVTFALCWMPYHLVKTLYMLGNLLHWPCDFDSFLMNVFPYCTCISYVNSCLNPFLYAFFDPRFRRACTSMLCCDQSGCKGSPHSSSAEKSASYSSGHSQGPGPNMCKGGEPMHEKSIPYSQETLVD
Protocol: To assay for GTP, membranes were prepared from stable cell lines and used to determine the efficacy/potency of the modified peptides. The optimal experimental conditions for the concentrations of GDP, MgCl2 and NaCl in the assay buffer were initially determined. The membranes were incubated with modified peptides in the assay buffer. The reaction was initiated by addition of [^35S] GTPγS in the absence or presence of peptides and incubated at room temperature for 90 min. […] Bound [^35S] GTPγS was separated from free radiolabel by filtration. The filter bound radioactivity was determined by liquid scintillation counting.
A series of PEGylated peptides were prepared and screened in vitro to explore the effects of PEG size and peptide valency on potency and efficacy in the GTPγS assay. In the assay 20 kDA and 40 kDA PEG were compared (FIG. 10).
Additionally mono- and multivalent bis, and tetrakis-peptide conjugated PEGS were prepared to explore peptide valency. […]

[3] = system: isolated Langendorff rat heart; experiment: Langendorff isolated rat heart, hemodynamic cardiac function; conditions: control rats, FIGS. 7 and 8
Description: To assess the hemodynamic cardiac function of the peptides a Langendorff isolated heart system was used. The isolated heart from rat provides broad spectrum of measurements that can include biochemical, metabolic, morphological and physiological indices. The limitations/advantages of the method include absence of neurohormonal influences, neural regulation and high coronary flows. Such limitations, however, are offset by the ability to study direct cardiac effects without systemic circulation and a host of peripheral interactions.
The reproducibility and accuracy of measurements and relatively low costs over in vivo studies for profiling drugs outweigh any limitations of this method. Therefore, this method provides excellent dose-response relationship and sheds critical insight into the pharmacological and physiological properties of the molecules of interest.
The animals were anesthetized upon administration of 50-100 mg/kg dose of sodium pentobarbital for rat via the intraperitoneal route. The heart was excised and gently cradled between fingers to avoid injury followed by lifting slightly before incising the aorta, vena cava and pulmonary vessels Immediately after excision of the heart with aorta, the heart was mounted onto the cannula in the Langendorff apparatus via the aorta. The heart was perfused with modified oxygenated Krebs-Henseleit buffer pH7.5 and equilibrated with 95% O2/5% CO2 at 37° C. The perfusion was performed at a constant flow of 10 ml/min and paced at 300 bpm. The pressure was measured through a pressure sensing balloon catheter inserted in the LV cavity. The intrinsic inotropy (force of muscle contraction) and lusitropy (cardiac relaxation) effects of the heart were assessed by dp/dtmax and dp/dtmin.
These figures illustrate improvement in both systolic and diastolic function of normal hearts with peptides of SEQ ID NOs: 23 and 24.

[4] = in vitro; conditions: rat, plasma
Protocol: Apelin peptides were spiked into freshly prepared mouse, rat, dog and human EDTA plasma to a final concentration of 5 μM. The plasma samples were then incubated at 37° C. over a period of 4 hr. Up to 8 time points were sampled to facilitate estimation of in vitro half life in plasma matrices. In a typical experiment, aliquot of 100 μL of plasma sample was taken from the incubation vial, followed by addition of 300 μL of MeOH containing internal standard. The quenched sample was centrifuged at 5500 g for 15 min after 15 min vortex in room temperature. The supernatant was then analyzed by high resolution LC-MS.

[5] = FIGURE 4B
Description: Table printed on a drawing sheet, FIGURE 4B
Section band inside the table: Peptides with triazole linker and 20 kDa PEG modification
The patent's description of the figure: FIGS. 4A-B. In vitro stability of APJ agonists in plasma.
First reader's note: Rows 3 and 9 of the grid are section headings spanning all columns (linker type of the 20 kDa PEGylated peptides).

[6] = target: T3, APJ receptor (Rattus norvegicus, UniProt Q9JHG3); experiment: EC50
T3 construct: expressed in transfected cells; CHO is named only for the cAMP assay
T3 sequence (Q9JHG3 whole entry, looked up): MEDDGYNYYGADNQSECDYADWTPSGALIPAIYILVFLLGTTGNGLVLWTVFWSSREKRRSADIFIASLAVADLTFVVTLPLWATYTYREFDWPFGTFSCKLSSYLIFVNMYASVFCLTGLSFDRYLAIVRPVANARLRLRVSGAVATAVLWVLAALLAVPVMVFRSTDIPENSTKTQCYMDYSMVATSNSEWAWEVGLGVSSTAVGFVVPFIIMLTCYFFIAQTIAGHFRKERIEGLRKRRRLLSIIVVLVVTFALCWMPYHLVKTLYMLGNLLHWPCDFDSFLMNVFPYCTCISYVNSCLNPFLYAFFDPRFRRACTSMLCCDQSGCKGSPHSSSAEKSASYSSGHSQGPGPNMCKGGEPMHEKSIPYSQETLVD
Description: Table printed on a drawing sheet, FIGURE 11
The patent's description of the figure: FIG. 11. Effects of peptide valency on in vitro activity.
First copying reader's note: The sheet prints no unit for the EC50 column; the plot under the table ([35S]GTPγS binding, rAPJ stable cell line) is not copied.

Molecule: 3-(1-(2-(mPEG(20kDa))ethyl)-1H-1,2,3-triazol-4-yl)alanine-[hArg68;Cha69;Oic74;Nle75;4-Cl-F77]Apelin-17(61-77) [SEQ ID NO: 25]
- agonist activity relative to pyr apelin-13 (SEQ ID NO: 128) [1]: potent and act as a full agonist

Molecule: 3-((2-(3-(mPEG(20kDa))propylamino)-2-oxoethyl)thio)propanamide-[hArg68;Cha69;Oic74;Nle75;4-Cl-Phe77]Apelin-17(61-77) [SEQ ID NO: 24]
- agonist activity relative to pyr apelin-13 (SEQ ID NO: 128) [1]: potent and act as a full agonist
- EC50 [2]: 0.252 nM
- dp/dtmax [3]: dose dependent increase
- dp/dtmin [3]: decrease
- systolic pressure [3]: increases

Molecule: CCCC[C@H](NC(=O)[C@@H]1C[C@@H]2CCCC[C@@H]2N1C(=O)CNC(=O)[C@H](CCCCN)NC(=O)[C@H](Cc1c[nH]cn1)NC(=O)[C@H](Cc1cn(CCOCCOCCOCCOCCOCCOCCOCCOCCOCCOCCN)nn1)NC(=O)[C@H](CC(C)C)N(C)C(=O)[C@H](CCCCNC(=N)N)NC(=O)[C@@H]1CCCN1C(=O)[C@H](CCCNC(=N)N)NC(=O)[C@@H]1CCC(=O)N1)C(=O)N[C@@H](Cc1ccc(Cl)cc1)C(=O)O [compound 35]
- remaining at 1 h, 5 μM [4]: 82%

Molecule: CCCC[C@H](NC(=O)[C@@H]1C[C@@H]2CCCC[C@@H]2N1C(=O)CNC(=O)[C@H](CCCCN)NC(=O)[C@H](Cc1c[nH]cn1)NC(=O)[C@H](Cc1cn(CCOCCOCCOCCOCCOCCOCCOCCOCCOCCOCCN)nn1)NC(=O)[C@H](CC(C)C)N(C)C(=O)[C@H](CCCCNC(=N)N)NC(=O)[C@@H]1CCCN1C(=O)[C@H](CCCNC(=N)N)NC(=O)[C@@H]1CCC(=O)N1)C(=O)N1CCC[C@H]1C(=O)N[C@@H](Cc1ccc(Cl)cc1)C(=O)O [compound 36]
- remaining at 1 h, 5 μM [4]: 88%

Molecule: Atz(20K-mPEG)- KFRRQRP[hArg][Cha]SHKG[Oic][Nle]P[4-Cl-F] [compound 49]
- in vitro plasma stability (t1/2, min) | HUMAN [5]: 176 min
- in vitro plasma stability (t1/2, min) | MOUSE [5]: 55 min
- in vitro plasma stability (t1/2, min) | RAT [5]: 193 min

Molecule: Atz(20K-mPEG)-LRP[hArg][Cha]SHKG[Oic][Nle]P[4-Cl-F] [compound 50]
- in vitro plasma stability (t1/2, min) | HUMAN [5]: 264 min
- in vitro plasma stability (t1/2, min) | MOUSE [5]: 64 min
- in vitro plasma stability (t1/2, min) | RAT [5]: 256 min

Molecule: SEQ ID NO: 130: 20 kDa PEG-bis(Atz-KFRRQRP[hArg][Cha]SHKG[Oic][Nle]P[4-Cl—F]) (KFRRQRP[hArg][Cha]SHKG[Oic][Nle]P[Phe(4-Cl)]; not fully specified (N-terminus); also: 20 kDa PEG carries two peptide copies)
- EC50 [6]: 0.407 nM

Reference: patent US20160067347A1, “APJ RECEPTOR AGONISTS AND USES THEREOF” (AMGEN INC., priority 2012, published 2016)
